Key:
[1] = tested on: L929 fibroblasts; assay: Annexin V/PI apoptosis, normal cell line; format: cell-based; details: L929 fibroblasts cultured under attached conditions
[2] = tested on: A549 CSC; details: stated as known; cited from earlier work

Substance: ceramide [free ceramide]
- apoptosis in normal cells [1]: neither free ceramide nor G5C3 cause significant apoptosis
- resistance of A549 CSC [2]: resistant to free ceramide
